Measurements reported in patent publication US20070275968A1, “Substituted Biphenyl Derivative” (priority 2004, published 2007).

Row | Structure (SMILES) | melting point
1 | Cc1cccc(-c2[nH]c(C(C)C)nc2-c2cccc(-c3ccc[nH]3)c2)n1 [Example 23, 2-{2-Isopropyl-4-[3-(1H-pyrrol-2-yl)phenyl]-1H-imidazol-5-yl}-6-methylpyridine] | 103 to 107 °C
2 | Cc1cccc(-c2[nH]c(C(C)C)nc2-c2cccc(-c3ccc4c(c3)C=CS4(=O)=O)c2)n1 [Example 85, 2-{4-[3-(1,1-Dioxido-1-benzothien-5-yl)phenyl]-2-isopropyl-1H-imidazol-5-yl}-6-methylpyridine] | 137 to 138 °C
3 | Cc1cccc(-c2[nH]c(C(C)C)nc2-c2cccc(-c3ccc(N)cc3)c2)n1 [Example 28, 2-[2-Isopropyl-4-(4′-amino-1,1′-biphenyl-3-yl)-1H-imidazol-5-yl]-6-methylpyridine] | 107 to 117 °C
4 | Cc1cccc(-c2[nH]c(C(C)C)nc2-c2cccc(-c3ccc(NS(C)(=O)=O)cc3)c2)n1 [Example 15, N-{3′-[2-Isopropyl-5-(6-methylpyridin-2-yl)-1H-imidazol-4-yl]-1,1′-biphenyl-4-yl}methanesulfonamide] | 128 to 130 °C
5 | Cc1cccc(-c2[nH]c(C(C)C)nc2-c2cccc(-c3ccc(NC(=O)NN4CCOCC4)cc3)c2)n1 [Example 67, N-{3′-[2-Isopropyl-5-(6-methylpyridin-2-yl)-1H-imidazol-4-yl]-1,1′-biphenyl-4-yl}-N′-morpholin-4-ylurea] | 146 to 148 °C
6 | Cc1cccc(-c2[nH]c(C(C)C)nc2-c2cccc(-c3cccc(S(N)(=O)=O)c3)c2)n1 [Example 42, 3′-[2-Isopropyl-5-(6-methylpyridin-2-yl)-1H-imidazol-4-yl]-1,1′-biphenyl-3-sulfonamide] | 123 to 126 °C
7 | Cc1cccc(-c2[nH]c(C(C)C)nc2-c2cccc(-c3cccc(F)c3)c2)n1 [Example 7, 2-[4-(3′-Fluoro-1,1′-biphenyl-3-yl)-2-isopropyl-1H-imidazol-5-yl]-6-methylpyridine] | 140 to 142 °C
8 | Cc1cccc(-c2[nH]c(C(C)C)nc2-c2cccc(-c3ccncc3)c2)n1 [Example 12, 2-[2-Isopropyl-4-(3-pyridin-4-ylphenyl)-1H-imidazol-5-yl]-6-methylpyridine] | 84 to 86 °C
9 | Cc1cccc(-c2[nH]c(C(C)C)nc2-c2cccc(-c3ccc(NS(=O)(=O)C4CC4)cc3F)c2)n1 [Example 74, N-{2-Fluoro-3′-[2-isopropyl-5-(6-methylpyridin-2-yl)-1H-imidazol-4-yl]-1,1′-biphenyl-4-yl}cyclopropanesulfonamide] | 124 to 128 °C
10 | Cc1cccc(-c2[nH]c(C(C)C)nc2-c2cccc(-c3ccc([N+](=O)[O-])cc3)c2)n1 [Example 27, 2-[2-Isopropyl-4-(4′-nitro-1,1′-biphenyl-3-yl)-1H-imidazol-5-yl]-6-methylpyridine] | 95 to 105 °C
11 | CC(=O)c1ccc(-c2cccc(-c3nc(C(C)C)[nH]c3-c3cccc(C)n3)c2)cc1 [Example 24, 1-{3′-[2-Isopropyl-5-(6-methylpyridin-2-yl)-1H-imidazol-4-yl]-1,1′-biphenyl-4-yl}ethanone] | 84 to 87 °C
12 | Cc1cccc(-c2[nH]c(C(C)C)nc2-c2cccc(-c3cccs3)c2)n1 [Example 20, 2-[2-Isopropyl-4-(3-thien-2-ylphenyl)-1H-imidazol-5-yl]-6-methylpyridine] | 73 to 76 °C
13 | Cc1cccc(-c2[nH]c(C(C)C)nc2-c2cccc(-c3cccc(S(C)(=O)=O)c3)c2)n1 [Example 18, 2-{2-Isopropyl-4-[3′-(methylsulfonyl)-1,1′-biphenyl-3-yl]-1H-imidazol-5-yl}-6-methylpyridine] | 97 to 100 °C
14 | Cc1cccc(-c2[nH]c(C(C)C)nc2-c2cccc(-c3ccccc3F)c2)n1 [Example 6, 2-[4-(2′-Fluoro-1,1′-biphenyl-3-yl)-2-isopropyl-1H-imidazol-5-yl]-6-methylpyridine] | 153 to 155 °C
15 | Cc1cccc(-c2[nH]c(C(C)C)nc2-c2cccc(-c3ccc(C(=O)NN4CCOCC4)cc3)c2)n1 [Example 51, N-(Morpholin-4-yl)-4-{3-[2-isopropyl-5-(6-methylpyridin-2-yl)-1H-imidazol-4-yl]-phenyl}benzamide] | 145 °C
16 | Cc1cccc(-c2[nH]c(C(C)C)nc2-c2cccc(-c3ccsc3)c2)n1 [Example 14, 2-[2-Isopropyl-4-(3-thien-3-ylphenyl)-1H-imidazol-5-yl]-6-methylpyridine] | 83 to 85 °C

Further lines, results first:

Row | melting point | Structure (SMILES)
17 | 230 to 234 °C | Cc1cccc(-c2[nH]c(C(C)C)nc2-c2ccc(F)c(-c3c[nH]c(C)n3)c2)n1 [Example 141, 2-{4-[4-Fluoro-3-(2-methyl-1H-imidazol-4-yl)phenyl]-2-isopropyl-1H-imidazol-5-yl}-6-methylpyridine]
18 | 130 to 131 °C | Cc1cccc(-c2n[nH]cc2-c2ccc(F)c(-c3cn(CCN(C)C)cn3)c2)n1 [Example 186, 2-(4-{2-Fluoro-5-[3-(6-methylpyridin-2-yl)-1H-pyrazol-4-yl]phenyl}-1H-imidazol-1-yl)-N,N-dimethylethylamine]
19 | 201 to 205 °C | Cc1cccc(-c2[nH]c(C(C)C)nc2-c2ccc(F)c(-c3ncc[nH]3)c2)n1 [Example 134, 2-{4-[4-Fluoro-3-(1H-imidazol-2-yl)phenyl]-2-isopropyl-1H-imidazol-5-yl}-6-methylpyridine]
20 | 119 to 121 °C | Cc1cccc(-c2n[nH]cc2-c2ccc(F)c(-c3ccc(S(N)(=O)=O)c(F)c3)c2)n1 [Example 147, 2′,3-Difluoro-5′-[3-(6-methylpyridin-2-yl)-1H-pyrazol-4-yl]-1,1′-biphenyl-4-sulfonamide]
21 | 86 °C | Cc1cccc(-c2n[nH]cc2-c2ccc(F)c(-c3ccc(N4CCN(C)CC4)nc3)c2)n1 [Example 187, 1-(5-{2-Fluoro-5-[3-(6-methylpyridin-2-yl)-1H-pyrazol-4-yl]phenyl}pyridin-2-yl)-4-methylpiperazine]
22 | 190 to 192 °C | Cc1cccc(-c2nc(N)sc2-c2ccc(F)c(-c3ccc(S(N)(=O)=O)cc3)c2)n1 [Example 216, 5′-[2-Amino-4-(6-methylpyridin-2-yl)-1,3-thiazol-5-yl]-2′-fluoro-1,1′-biphenyl-4-sulfonamide]
23 | 125 °C | Cc1cccc(-c2n[nH]cc2-c2ccc(F)c(-c3ccc(S(N)(=O)=O)s3)c2)n1 [Example 143, 5-{2-Fluoro-5-[3-(6-methylpyridin-2-yl)-1H-pyrazol-4-yl]phenyl}thiophene-2-sulfonamide]
24 | 145 °C | Cc1cccc(-c2[nH]c(C(C)C)nc2-c2ccc(F)c(-c3ccc(NC(=O)NN4CCN(C)CC4)cc3)c2)n1 [Example 92, N-{2′-Fluoro-5′-[2-isopropyl-5-(6-methylpyridin-2-yl)-1H-imidazol-4-yl]-1,1′-biphenyl-4-yl}-N′-(4-methylpiperazin-1-yl)urea]
25 | 233 to 235 °C | Cc1cccc(-c2[nH]c(C(C)C)nc2-c2ccc(F)c(-c3c[nH]nn3)c2)n1 [Example 106, 2-{4-[4-Fluoro-3-(1H-1,2,3-triazol-4-yl)phenyl]-2-isopropyl-1H-imidazol-5-yl}-6-methylpyridine]
26 | 131 to 133 °C | Cc1cccc(-c2n[nH]cc2-c2ccc(F)c(-c3ccc(NC(=O)NN4CCOCC4)cc3)c2)n1 [Example 192, N-{2′-Fluoro-5′-[3-(6-methylpyridin-2-yl)-1H-pyrazol-4-yl]-1,1′-biphenyl-4-yl}-N′-morpholine-4-ylurea]
27 | 148 to 151 °C | Cc1cccc(-c2n[nH]cc2-c2ccc(F)c(-c3ccc(OCCO)cn3)c2)n1 [Example 166, 2-[(6-{2-Fluoro-5-[3-(6-methylpyridin-2-yl)-1H-pyrazol-4-yl]phenyl}pyridin-3-yl)oxy]ethanol]
28 | 76 to 78 °C | CCn1cc(-c2cc(-c3[nH]c(C(C)C)nc3-c3cccc(C)n3)ccc2F)cn1 [Example 107, 2-{5-[3-(1-Ethyl-1H-pyrazol-4-yl)-4-fluorophenyl]-2-isopropyl-1H-imidazol-4-yl}-6-methylpyridine]
29 | 84 to 85 °C | Cc1cccc(-c2nc(C(C)C)[nH]c2-c2ccc(F)c(-c3cnn(C(C)C)c3)c2)n1 [Example 108, 2-{5-[4-Fluoro-3-(1-isopropyl-1H-pyrazol-4-yl)phenyl]-2-isopropyl-1H-imidazol-4-yl}-6-methylpyridine]
30 | 102 to 104 °C | CS(=O)(=O)c1ccc(-c2cc(-c3c[nH]nc3-c3cccc(C4CC4)n3)ccc2F)cc1 [Example 203, 2-Cyclopropyl-6-{4-[6-fluoro-4′-(methylsulfonyl)-1,1′-biphenyl-3-yl]-1H-pyrazol-3-yl}pyridine]
31 | 172 to 173 °C | Cc1cccc(-c2nn(C(C)C)cc2-c2ccc(F)c(-c3ccc(S(C)(=O)=O)cc3)c2)n1 [Example 200, 2-{4-[6-Fluoro-4′-(methylsulfonyl)-1,1′-biphenyl-3-yl]-1-isopropyl-1H-pyrazol-3-yl}-6-methylpyridine]
32 | 149 to 151 °C | Cc1cccc(-c2n[nH]cc2-c2ccc(F)c(-c3ccc(C(C)O)cn3)c2)n1 (stereo not drawn) [Example 165, 1-(6-{2-Fluoro-5-[3-(6-methylpyridin-2-yl)-1H-pyrazol-4-yl]phenyl}pyridin-3-yl)ethanol]
33 | 94 to 95 °C | CCC(O)(CC)c1ccc(-c2cc(-c3c[nH]nc3-c3cccc(C)n3)ccc2F)nc1 [Example 174, 3-(6-{2-Fluoro-5-[3-(6-methylpyridin-2-yl)-1H-pyrazol-4-yl]phenyl}pyridin-3-yl)pentan-3-ol]
34 | 112 to 114 °C | Cc1cccc(-c2[nH]c(C(C)C)nc2-c2cccc(-c3ccc(S(C)(=O)=O)cn3)c2)n1 [Example 88, 2-{3-[2-Isopropyl-5-(6-methylpyridin-2-yl)-1H-imidazol-4-yl]phenyl}-5-(methylsulfonyl)pyridine]
35 | 243 to 246 °C | Cc1cccc(-c2n[nH]cc2-c2ccc(F)c(-c3c[nH]c(CO)n3)c2)n1 [Example 208, (4-{2-Fluoro-5-[3-(6-methylpyridin-2-yl)-1H-pyrazol-4-yl]phenyl}-1H-imidazol-2-yl)methanol]
36 | 168 to 169 °C | COC(C)(C)c1ccc(-c2cc(-c3c[nH]nc3-c3cccc(C)n3)ccc2F)nc1 [Example 173, 2-{2-Fluoro-5-[3-(6-methylpyridin-2-yl)-1H-pyrazol-4-yl]phenyl}-5-(1-methoxy-1-methylethyl)pyridine]
